Experiments:
[1] = system: human breast adenocarcinoma cell line (MCF-7); test: MTT cytotoxicity assay on MCF-7; format: cell-based; conditions: for IC50: MTT, 24 h incubation; for SI MCF-7 (selectivity index): NIH/3T3 versus MCF-7
Method: (§1) This is a colorimetric assay that measures the reduction of 3-(4,5-dimethylthiazol-2-yl)-2,4,diphenyltetrazolium bromide (MTT) by mitochondria. All final compounds were tested against human breast adenocarcinoma cell line (MCF-7), human lung carcinoma cell line (A549) and mouse embryooblast cell line (NIH/3T3) to determine their cytotoxic profile. Cancer cells were cultured in RPMI medium (Hyclone, Thermo Scientific, Waltham, MA, USA) at 37 °C in a humidified atmosphere of 95% air and 5% CO2. The studied cells were situated at 2 × 10^4 cells into each well of 96-well microtiter tissue culture plates (Nunc, Denmark) and incubated for 24 h. After that, test compounds were dissolved in DMSO and added to culture wells at varying concentrations (85–1000 µM). After a 24 h incubating period, […] MTT solution (5 mg/mL MTT powder in PBS) was added to each well and the cells were incubated for 4 h at 37 °C. The purple formazan crystals produced were dissolved in DMSO and the absorbance was read by ELISA reader (OD570 nm). The percent values of cell proliferations were calculated relative to controls, whose cell proliferations were accepted as 100% [47].

[2] = system: human lung carcinoma cell line (A549); test: MTT cytotoxicity assay on A549; format: cell-based; conditions: for IC50: MTT, 24 h incubation; for SI A549 (selectivity index): NIH/3T3 versus A549
Method: as §1

[3] = system: mouse embryoblast cell line (NIH/3T3); test: MTT cytotoxicity assay on NIH/3T3 (healthy cells); format: cell-based; conditions: NIH3T3, 24 h incubation
Method: as §1

[4] = target: acetylcholinesterase (AChE) (Homo sapiens, UniProt P22303); test: biochemical; conditions: 80 µg/mL (~160 µM)
Method: (§2) In order to determine the acetyl- and butyrylcholinesterase enzyme inhibitions, experiments were carried out by making some changes in the method developed by Ellman. Samples were prepared by dissolving in the appropriate solvent. Adding 20 μL enzyme solution (AChE or BuChE, 1 U/mL) and 10 μL sample solution to 2.4 mL buffer solution and it was incubated for 15 min at 37 °C. After incubation, 50 μL DTNB and 75 mM ATCI solution or 20 μL of 25 mM BTCI solution were added and allowed the mixture to incubate at room temperature for 30 min. For the control group, only 10 μL of solvent was added instead of the sample solution provided all protocols are the same. […] Experiments were run in triplicate. The inhibition fractions of AChE […] BuChE enzymes were calculated using the following equation:I(%) = 100 − ([…]) × 100

[5] = target: butyrylcholinesterase (BuChE) (Homo sapiens, UniProt P06276); test: biochemical; conditions: 80 µg/mL (~160 µM)
Method: as §2

[6] = system: MCF-7 cells; test: Annexin V-FITC/propidium iodide flow cytometry on MCF-7; format: cell-based, human; conditions: MCF-7 cell line, IC50 concentration
Method: (§3) Evaluation of apoptosis was carried out through the Annexin V-FITC Apoptosis Detection Kit from BD, Pharmingen, according to the manufacturer’s instruction. […] Then cells were rinsed with cold water twice and resuspended in Annexin V-FITC binding buffer at a concentration of 1 × 10^6 cells/mL. […] of Annexin V-FITC was used to stain the cells. After 15 min of incubation at 25 °C, the cell suspension was centrifugated for 5 min and cells were resuspended in Annexin V-FITC binding buffer. Propidium iodide ([…]) was added and the tubes were situated on ice and away from light. The fluorescence was measured using a flow cytometer. The results were analyzed by using FCSExpress software and represented as percentage of normal and apoptotic cells at various stages. […] The four areas in the diagrams stand for necrotic cells (Q1, positive for PI and negative for annexin/FITC, left square on the top), live cells (Q3, negative for annexin and PI, left square at the bottom), late apoptotic or necrotic cells (Q2, positive for annexin and PI, right square on the top) and apoptotic cells (Q4, negative for PI and positive for annexin, right square at the bottom), respectively. The experiment was repeated three times.

[7] = system: A549 cells; test: Annexin V-FITC/propidium iodide flow cytometry on A549; format: cell-based, human; conditions: A549 cell line, IC50 concentration; for % Early Apoptotic / % Late Apoptotic / % Necrotic / % Viable: 24 h
Method: as §3

[8] = system: A549 cells; test: DNA synthesis inhibition (BrdU) on A549
Method: The 5-bromo-2′-deoxy-uridine (BrdU) cell proliferation assay [48] was used to detect the proliferation of A549 and C6 cells. […] At the end of each day, the cells were labelled with 10 mL BrdU solution for 2 h and then fixed. Anti-BrdU-POD (100 mL) was added and incubated for 90 min. Finally, microtiter plates were washed with phosphate buffered saline (PBS) three times and the cells were incubated with substrate solution until the color was sufficient for photometric detection. […] The growth percentage was evaluated spectrophotometrically versus untreated controls with used cell viability of growth assay. Results for each spectrophotometrical measure were noticed as percent of growth inhibition. All experiments were done in triplicates.
Mean percent absorbance of untreated control cells were assumed 0%. […] Data points represent means for three independent wells ± SD. p < 0.05.

[9] = system: MCF-7 cells; test: DNA synthesis inhibition (BrdU) on MCF-7

acetylcholinesterase (AChE), sequence (P22303 32-614, species assumed): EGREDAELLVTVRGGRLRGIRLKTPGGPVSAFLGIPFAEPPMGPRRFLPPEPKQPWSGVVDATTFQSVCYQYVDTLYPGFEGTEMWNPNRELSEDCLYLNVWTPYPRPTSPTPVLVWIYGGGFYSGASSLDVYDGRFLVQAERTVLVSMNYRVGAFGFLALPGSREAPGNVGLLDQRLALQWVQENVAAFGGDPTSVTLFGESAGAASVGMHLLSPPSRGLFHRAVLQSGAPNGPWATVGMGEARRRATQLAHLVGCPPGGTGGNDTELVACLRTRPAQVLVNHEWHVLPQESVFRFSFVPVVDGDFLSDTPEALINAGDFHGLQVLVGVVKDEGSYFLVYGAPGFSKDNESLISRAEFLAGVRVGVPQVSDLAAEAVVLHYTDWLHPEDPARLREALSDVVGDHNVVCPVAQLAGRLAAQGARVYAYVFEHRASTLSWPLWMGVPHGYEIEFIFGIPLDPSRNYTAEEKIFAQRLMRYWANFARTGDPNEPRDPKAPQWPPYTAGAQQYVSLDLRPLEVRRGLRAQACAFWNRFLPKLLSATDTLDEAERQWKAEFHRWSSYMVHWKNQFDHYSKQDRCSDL
butyrylcholinesterase (BuChE), sequence (P06276 29-602): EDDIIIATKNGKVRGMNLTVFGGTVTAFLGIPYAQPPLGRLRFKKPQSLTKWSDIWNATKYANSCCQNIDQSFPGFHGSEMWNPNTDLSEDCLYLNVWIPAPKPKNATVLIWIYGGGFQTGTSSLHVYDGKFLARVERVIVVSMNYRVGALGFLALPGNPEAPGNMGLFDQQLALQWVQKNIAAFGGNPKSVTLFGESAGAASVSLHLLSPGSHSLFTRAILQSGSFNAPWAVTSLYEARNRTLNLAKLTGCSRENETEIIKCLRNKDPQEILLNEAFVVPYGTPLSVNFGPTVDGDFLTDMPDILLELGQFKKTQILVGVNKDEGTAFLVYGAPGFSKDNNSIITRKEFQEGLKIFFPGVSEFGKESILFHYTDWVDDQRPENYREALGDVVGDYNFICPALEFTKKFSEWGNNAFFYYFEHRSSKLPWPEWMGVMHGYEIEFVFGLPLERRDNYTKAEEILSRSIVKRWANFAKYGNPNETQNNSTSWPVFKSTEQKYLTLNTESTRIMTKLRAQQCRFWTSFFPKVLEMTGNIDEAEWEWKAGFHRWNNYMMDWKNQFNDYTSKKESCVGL

O=C(COc1ccc2c(c1)CCCC2)NN=c1scc(-c2ccccc2)n1-c1ccccc1 [Compound 4c, N′-[3,4-Diphenylthiazole-2(3H)-ylidene]-2-[(5,6,7,8-tetrahydronaphthalen-2-yl)oxy]acetohydrazide]
IC50 ([1]; Homo sapiens, MCF7): 297 ± 46.6 µM | SI MCF-7 (selectivity index) [1]: > 3.4 | IC50 ([2]; Homo sapiens, A549): > 1000 µM | IC50 [3]: > 1000 µM | inhibition at 160 µM [4]: 19.3 ± 1.87% | inhibition at 160 µM [5]: 16.48 ± 0.08%

N.N.[Cl][Pt][Cl] [Cisplatin, cisplatin, reference compound]
IC50 [1]: 100 ± 3.3 µM | IC50 [2]: 108 ± 11.8 µM | apoptosis (early + late apoptotic cell percentage) MCF-7 [6]: 29.9% | % Early Apoptotic ([6]; 24 h): 2.8% | % Late Apoptotic ([6]; 24 h): 27.1% | % Necrotic ([6]; 24 h): 28.1% | apoptosis (early + late apoptotic cell percentage) A549 [7]: 40.2% | % Early Apoptotic [7]: 14.9% | % Late Apoptotic [7]: 25.3% | % Necrotic [7]: 6.7% | DNA synthesis inhibition on A549 at IC50/2 ([8]; IC50/2 concentration (4h 24.3 μM; cisplatin 54.2 μM)): 32.86% | DNA synthesis inhibition on A549 at IC50 ([8]; IC50 concentration (4h 48.6 μM; cisplatin 108.3 μM)): 50.33%

Cc1ccc(-c2csc(=NNC(=O)COc3ccc4c(c3)CCCC4)n2-c2ccccc2)cc1 [Compound 4d, N′-[3-Phenyl-4-(4-methylphenyl)thiazole-2(3H)-ylidene]-2-[(5,6,7,8-tetrahydronaphthalen-2-yl)oxy]acetohydrazide]
IC50 ([1]; Homo sapiens, MCF7): 71.8 ± 12.5 µM | SI MCF-7 (selectivity index) [1]: > 13.9 | IC50 ([2]; Homo sapiens, A549): > 1000 µM | IC50 [3]: > 1000 µM | % Early Apoptotic ([6]; 24 h): 1.1% | % Late Apoptotic ([6]; 24 h): 12.1% | % Necrotic ([6]; 24 h): 36.1% | % Viable ([6]; 24 h): 50.7% | inhibition at 160 µM [4]: 43.2 ± 1.56% | inhibition at 160 µM [5]: 33.2 ± 2.38% | inhibition at 71.8 µM ([9]; Homo sapiens, MCF7, 96 h, read-out: DNA synthesis inhibition on MCF-7 at IC50): 72.2% | DNA synthesis inhibition on MCF-7 at IC50/2 ([9]; IC50/2 concentration (4b 34.6 μM; 4d 36.9 μM, b49: 35.9 μM)): 47.75%

O=C(COc1ccc2c(c1)CCCC2)NN=c1scc(-c2ccccc2)n1C1CCCCC1 [Compound 4a, N′-(3-Cyclohexyl-4-phenylthiazole-2(3H)-ylidene)-2-[(5,6,7,8-tetrahydronaphthalen-2-yl)oxy]acetohydrazide]
IC50 ([1]; Homo sapiens, MCF7): > 1000 µM | SI MCF-7 (selectivity index) [1]: < 0.2 | IC50 ([2]; Homo sapiens, A549): 158 ± 14.8 µM | SI A549 (selectivity index) [2]: 1.3 | IC50 [3]: 206 ± 15.3 µM | apoptosis (early + late apoptotic cell percentage) A549 [7]: over 50% | % Early Apoptotic [7]: 7.4% | % Late Apoptotic [7]: 48.3% | % Necrotic [7]: 12.8% | % Viable [7]: 31.5% | inhibition at 160 µM [4]: 38.3 ± 2.18% | inhibition at 160 µM [5]: 28 ± 1.88%

O=C(COc1ccc2c(c1)CCCC2)NN=c1scc(-c2ccc(Cl)cc2)n1-c1ccccc1 [Compound 4g, N′-[3-Phenyl-4-(4-chlorophenyl)thiazole-2(3H)-ylidene]-2-[(5,6,7,8-tetrahydronaphthalen-2-yl)oxy]acetohydrazide]
IC50 ([1]; Homo sapiens, MCF7): 483 ± 31.2 µM | SI MCF-7 (selectivity index) [1]: 0.5 | IC50 ([2]; Homo sapiens, A549): 28.6 ± 4.1 µM | SI A549 (selectivity index) [2]: 7.8 | IC50 [3]: 224 ± 20.5 µM | apoptosis (early + late apoptotic cell percentage) A549 [7]: over 41.5% | % Early Apoptotic [7]: 18.7% | % Late Apoptotic [7]: 26.0% | % Necrotic [7]: 5.8% | % Viable [7]: 49.4% | inhibition at 160 µM [4]: 24.4 ± 1.2% | inhibition at 80 µg/mL [5]: < 0%

O=C(COc1ccc2c(c1)CCCC2)NN=c1scc(-c2ccc([N+](=O)[O-])cc2)n1-c1ccccc1 [Compound 4j, N′-[3-Phenyl-4-(4-nitrophenyl)thiazole-2(3H)-ylidene]-2-[(5,6,7,8-tetrahydronaphthalen-2-yl)oxy]acetohydrazide]
IC50 ([1]; Homo sapiens, MCF7): > 1000 µM | IC50 ([2]; Homo sapiens, A549): 49 ± 1.41 µM | SI A549 (selectivity index) [2]: > 20.4 | IC50 [3]: > 1000 µM | apoptosis (early + late apoptotic cell percentage) A549 [7]: over 41.5% | % Early Apoptotic [7]: 11.2% | % Late Apoptotic [7]: 30.3% | % Necrotic [7]: 11.4% | % Viable [7]: 47.0% | inhibition at 160 µM [4]: 45 ± 1.6% | inhibition at 80 µg/mL [5]: < 0%

Reference: publication PMC6017121, “New Thiazoline-Tetralin Derivatives and Biological Activity Evaluation” (Molecules : A Journal of Synthetic Chemistry and Natural …, 2018)
